Experimental data: PMC10447463, “Data-mining unveils structure–property–activity correlation of viral infectivity enhancing self-assembling peptides” (Nature Communications, 2023)
Like-named read-outs stand apart in the source and are kept apart here.

How the values were obtained:
[1] = type: physicochemical; conditions: for ThT Cat. / ThT-Fluorescence (categorical): ThT-active if fluorescence at least twice the control
Outline: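 Preformed peptide fibrils (1 mg/mL) mixed with 50 µM ThT in PBS, 15 min at RT, fluorescence ex 440/em 488 nm versus PBS blank, triplicates. Zeta potential: peptides at 1 mg/mL in PBS pH 7.4, aged 1 d at RT, diluted in 1 mM KCl, Smoluchowski from electrophoretic mobility.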

[2] = Turbidity, derived count rate of scattered light; type: physicochemical; conditions: log10 of derived count rate of scattered light, Figure 7B
[3] = tested on: TZM-bl cells; type: cell-based; conditions: CellTiter-Glo, mean of n = 3 replicates
Outline: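 Viability of TZM-bl cells (10,000 seeded) after 3 days with serially diluted peptides, measured by CellTiter-Glo luminescence. Values normalized to 100% metabolic activity; triplicates.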

[4] = relative to blank 42.1851851851852 a.u.
[5] = ThT fluorescence relative to blank, blank = 42.1851851851852
[6] = ThT fluorescence relative to blank (42.1851851851852 a.u.)

For KIKIQIN [JGB3], the “Tht category (> 1.5 to blank = +)” value ([1]; category 1/0) was 0 (ThT-inactive (N-Fold <2)) and the “Tht rel to blank (42.1851851851852)” value [1, 4] was 1.784.

In the case of KIKIQINAWQ [JR3-II], the “Tht category (> 1.5 to blank = +)” value ([1]; FigS26) is reported as 1 (Tht category (> 1.5 to blank = +)).

For KIKIQINMAQ [JR2], the “Tht category (> 1.5 to blank = +)” value ([1]; FigS26) was 0 (Tht category (> 1.5 to blank = +)).

For KIKIQINMWA [JR1], the “Tht category (> 1.5 to blank = +)” value ([1]; FigS26) was 0 (Tht category (> 1.5 to blank = +)).

In the case of KIKIQINMWQRGD [VH17-II], the “Tht category (> 1.5 to blank = +)” value ([1]; FigS26) is reported as 0 (Tht category (> 1.5 to blank = +)), the “Tht category (> 1.5 to blank = +)” value ([1]; category 1/0) is reported as 0 (ThT-inactive (N-Fold <2)) and the “Tht rel to blank (42.1851851851852)” value [1, 4] is reported as 1.548.

In the case of KIKIQINMWWQ [VH11], the “Tht category (> 1.5 to blank = +)” value ([1]; category 1/0) is reported as 0 (ThT-inactive (N-Fold <2)) and the “Tht rel to blank (42.1851851851852)” value [1, 4] is reported as 1.314.

With KIKIQINMWWWQ [VH12] the “Tht category (> 1.5 to blank = +)” value ([1]; category 1/0) was 0 (ThT-inactive (N-Fold <2)) and the “Tht rel to blank (42.1851851851852)” value [1, 4] was 1.301.

In the case of KIKIQIRGD [MG6], the “Tht category (> 1.5 to blank = +)” value ([1]; FigS26) is reported as 1 (Tht category (> 1.5 to blank = +)).

For KIKIQIW [TM69], the “Tht rel to blank (42.1851851851852)” value [1, 5] was 2.047, the “Tht category (> 1.5 to blank = +)” value ([1]; category 1/0) was 1 (ThT. Cat is 1, if Rel. ThT >2) and the “Tht rel to blank (42.1851851851852)” value [1, 4] was 2.047.

For KIKIWIW, the “ThT Cat. / ThT-Fluorescence (categorical)” value (shortened to “ThT Cat. / ThT-Fluorescence”) [1] was 0 (ThT-inactive (N-Fold <2)).

In the case of KIKQIIN [JGA3], the “Tht rel to blank (42.1851851851852)” value [1, 6] is reported as 1.148.

With KIWIWIW the “ThT Cat. / ThT-Fluorescence” value [1] was 1 (ThT. Cat is 1, if Rel. ThT >2).

For KLKLKLQL [TG16], the “Tht rel to blank (42.1851851851852)” value [1, 5] was 1.572 and the “Tht category (> 1.5 to blank = +)” value ([1]; category 1/0) was 0 (ThT-inactive (N-Fold <2)).

In the case of KLKLTLT, the “ThT Cat. / ThT-Fluorescence” value [1] is reported as 1 (ThT. Cat is 1, if Rel. ThT >2).

For KLVFFAK [reference compound], the “Log10 Count Rate” value [2] was 1.159 and the “ThT Cat. / ThT-Fluorescence” value [1] was 0 (ThT-inactive (N-Fold <2)).

With KVKVKVQV [JG14 / TG14] the “Tht rel to blank (42.1851851851852)” value [1, 5] was 5.801 and the “Tht category (> 1.5 to blank = +)” value ([1]; category 1/0) was 1 (ThT. Cat is 1, if Rel. ThT >2).

For KVKVQVV [TG2], the “Tht rel to blank (42.1851851851852)” value [1, 6] was 1.263, the “Tht rel to blank (42.1851851851852)” value [1, 5] was 1.263 and the “Tht category (> 1.5 to blank = +)” value ([1]; category 1/0) was 0 (ThT-inactive (N-Fold <2)).

With KVKVQVVV [TG8] the “Tht rel to blank (42.1851851851852)” value [1, 6] was 0.8863, the “Tht rel to blank (42.1851851851852)” value [1, 5] was 0.8863 and the “Tht category (> 1.5 to blank = +)” value ([1]; category 1/0) was 0 (ThT-inactive (N-Fold <2)).

In the case of KYFIL [reference compound], the “Log10 Count Rate” value [2] is reported as 4.277 and the “ThT Cat. / ThT-Fluorescence” value [1] is reported as 0 (ThT-inactive (N-Fold <2)).

With KYKYQY [KB1] the “Tht rel to blank (42.1851851851852)” value [1, 5] was 6.106 and the “Tht category (> 1.5 to blank = +)” value ([1]; category 1/0) was 1 (ThT. Cat is 1, if Rel. ThT >2).

For LASLIYR [reference compound], the “Log10 Count Rate” value [2] was 2.0205 and the “ThT Cat. / ThT-Fluorescence” value [1] was 0 (ThT-inactive (N-Fold <2)).

In the case of MKVIFLKDVKG [reference compound], the “Log10 Count Rate” value [2] is reported as 2.137 and the “ThT Cat. / ThT-Fluorescence” value [1] is reported as 0 (ThT-inactive (N-Fold <2)).

For NKGAII [reference compound], the “Log10 Count Rate” value [2] was 1.831 and the “ThT Cat. / ThT-Fluorescence” value [1] was 0 (ThT-inactive (N-Fold <2)).

For NMWQKAKAQA [JG10], the “Tht category (> 1.5 to blank = +)” value ([1]; FigS26) was 1 (Tht category (> 1.5 to blank = +)).

In the case of NMWQKFKFQF [JG11], the “Tht category (> 1.5 to blank = +)” value ([1]; FigS26) is reported as 0 (Tht category (> 1.5 to blank = +)).

For NMWQKIKIQI [JG9], the “Tht category (> 1.5 to blank = +)” value ([1]; FigS26) was 1 (Tht category (> 1.5 to blank = +)).

For NMWQKIKQII [JG8], the “Tht category (> 1.5 to blank = +)” value ([1]; FigS26) was 0 (Tht category (> 1.5 to blank = +)).

With RATVYV [reference compound] the “Log10 Count Rate” value [2] was 1.621 and the “ThT Cat. / ThT-Fluorescence” value [1] was 0 (ThT-inactive (N-Fold <2)).

With RFWFWFW the “ThT Cat. / ThT-Fluorescence” value [1] was 1 (ThT. Cat is 1, if Rel. ThT >2).

With RGDSGGGGGGKIKIQIC [TM114 / RC17] the “viability 0.26 µM” value ([3]; peptide 0.26 µM) was 105.8, the “viability 1.3 µM” value ([3]; peptide 1.3 µM) was 97.96 and the “viability 6.5 µM” value ([3]; peptide 6.5 µM) was 78.89.

For RINFWFW, the “ThT Cat. / ThT-Fluorescence” value [1] was 1 (ThT. Cat is 1, if Rel. ThT >2).

With RIRFHIW the “ThT Cat. / ThT-Fluorescence” value [1] was 0 (ThT-inactive (N-Fold <2)).

In the case of RQGNINIVA [reference compound], the “Log10 Count Rate” value [2] is reported as 1.551 and the “ThT Cat. / ThT-Fluorescence” value [1] is reported as 1 (ThT. Cat is 1, if Rel. ThT >2).

In the case of RVHLGLG, the “ThT Cat. / ThT-Fluorescence” value [1] is reported as 0 (ThT-inactive (N-Fold <2)).

In the case of RVRVTVT, the “ThT Cat. / ThT-Fluorescence” value [1] is reported as 0 (ThT-inactive (N-Fold <2)).

In the case of VHDCVNITIK [reference compound], the “Log10 Count Rate” value [2] is reported as 4.098 and the “ThT Cat. / ThT-Fluorescence” value [1] is reported as 1 (ThT. Cat is 1, if Rel. ThT >2).
